Experimental data as given in US20140336187A1, “METHODS FOR TREATING LEISHMANIASIS” (HOWARD UNIVERSITY, priority 2011, published 2014).
Several values for one entry are separate records, joined by “and”; a condition that tells them apart may be missing. Identical values can stand only once.

Assays:
[1] = test system: L. donovani promastigotes; test: Antileishmanial activity on L. donovani promastigotes (resazurin cell viability assay); type: cell-based, Leishmania donovani; conditions: for IC50: L. donovani promastigotes, resazurin assay, 0.03 to 44 μM, means ± S.E. of three experiments, read-out: IC50 (μM) Promastigotes; for SI Values Promastigotes: SI = IC50 (mouse fibroblast) ÷ IC50 (promastigotes)
Method: Approximately 5×10^5 promastigotes/ml of L. donovani Khartum strain were inoculated into Yeager's Liver infusion tryptose (YLIT) medium or Brain Heart Infusion (BHI) broth (Difco), supplemented with glucose (2.5 mg/ml), 50 U/ml Pen-Strep and 0.005 mM Hemin at 25-26° C. and subcultured bi-weekly, Mikus et al., Parasitol Int., 48(3):265-9 (2000) (Mikus and Steverding, 2000).
(§1) The Leishmanicidal properties of fifteen naphthoquinone compounds (FIG. 1) on L. donovani promastigotes proliferation were assessed by the resazurin cell viability assay. Promastigotes from axenic culture were harvested during the exponential phase of growth (at least 5-day old culture), incubated at a concentration of 2×10^5 cells/200 μl with and without dilutions of compounds in 96-well microtitre plates. Dilutions of compounds covering 0.03 μM to 44 μM were prepared. […] 20 μl Alamar Blue (12.5 mg resazurin dissolved in 100 ml distilled water (Sigma #R7017)) (Mikes and Steverding, 2000) were added to each well and plates were incubated for another 2 hrs. […] Decrease in fluorescence (inhibition), were expressed as percentage of the fluorescence of control cultures and were plotted against the concentrations of compounds. The IC50 values were calculated from the sigmoidal inhibition curves.

[2] = test system: L. donovani promastigotes; test: Dose and time-dependent inhibitory effect on L. donovani promastigotes (2, 4, 6, 24 hours exposure); type: cell-based, Leishmania donovani; conditions: Leishmania donovani, promastigotes, means ± S.E.
Method: as §1
A time and dose-dependent inhibitory effect of all 15 imido-substituted naphthoquinone compounds was assessed on their activity on promastigotes of L. donovani. Promastigotes were plated in 96-well plates and incubated in different concentrations of each compound (0.03 to 44 μM), incubated for two hours and viabilities assayed by the resazurin assay. A two hour exposure was assessed by calculation of IC50 values of each compound. Values are means±S.E. (Standard Error).
(§2) A time and dose-dependent inhibitory effect of all 15 imido-substituted naphthoquinone compounds was assessed on their activity on promastigotes of L. donovani. Promastigotes were plated in 96-well plates and incubated in different concentrations of each compound (0.03 to 44 μM), incubated for four hours and cell viabilities assayed by the resazurin assay. A four hour exposure was assessed by calculation of IC50 values of each compound. Values are means±S.E. (Standard Error).
Promastigotes were plated in 96-well plates and incubated in different concentrations of each compound (0.03 to 44 μM), incubated for six hours and cell viabilities assayed by the resazurin assay. A six hour exposure was assessed by calculation of IC50 values of each compound. Values are means±S.E. (Standard error).
as §2, with “incubated for twenty four hours” for “incubated for four hours”, “assay. A twenty four hour” for “assay. A four hour”

[3] = test system: NIH 3T3 BALB/c mouse fibroblast cell line; test: Cytotoxic assessment on NIH 3T3 BALB/c mouse fibroblasts (resazurin assay); conditions: read-out: IC50 (μM) Fibroblasts; NIH 3T3 BALB/c mouse fibroblasts; 48 hrs; resazurin assay; means ± S.E.
Method: Fibroblasts cells (4×10^4 cells/nil and adding 100 μl per well) were incubated with different concentrations of the naphthoquinone compounds (FIGS. 1) (3, 7, 13, 29, 33, and 44 μM) for 48 hrs after which viability of live fibroblast cells was determined by the Resazurin Method using a microplate reader (Bio-Tek Instruments EL311).
NIH 3T3 mouse fibroblasts were maintained in Roswell Park Memorial Institute (RPMI) medium supplemented with 10% Fetal calf serum, 50 units/ml penicillin, 50 units/ml streptomycin B in a humidified incubator at 37° C. in the presence of 5% CO2 (Scala et al., 2010).
Assays were performed to assess the cytotoxicity of these compounds in 96-well microtiter plates, with each well containing 100 μl of RPMI medium supplemented with 10% bovine calf scrum with 50 U/ml Pen-Strep. The cells were plated at a concentration of 4×10^3 cells/well (4×10^4 cells/ml). Fibroblast cells were then incubated with compounds for 48 hrs and inspected under an inverted microscope to assure growth of the controls and sterile conditions. 10 μl of resazurin solution (12.5 mg resazurin dissolved in 100 nil distilled water) were added to each well and the plates were incubated for another 2 hrs. The plates were read with a microplate reader at 570 nm. Experiments were done at least 3 times in triplicates (Scala et al., 2010).
Cell viability was determined using Resazurin Assay. The IC50 values were calculated and expressed as means±S.E (standard error).

[4] = test system: L. donovani amastigotes; test: Antileishmanial activity on L. donovani amastigotes (resazurin assay); type: cell-based, Leishmania donovani; conditions: for IC50: Leishmania donovani, L. donovani amastigotes, 48 hrs exposure, resazurin assay, means ± S.E., read-out: IC50 (μM) Amastigotes; for SI Values Amastigotes: SI = IC50 (mouse fibroblast) ÷ IC50 (amastigotes)
Method: Amastigotes were grown in MAA/20 medium (Amastigote medium consisted of: M199 medium supplemented with 0.5% Tryptone broth, 0.01 mM bathocuproinedisulfonic acid, 0.108 mM L-Cysteine, 15 mM D-glucose, 0.685 mM L-glutamine, and 0.025 mM Hemin and 20% fetal calf serum (FCS) at a pH of 5.5).
Amastigotes were plated at a concentration of 2×10^5 cells/[…] 24 hrs before treatment with various compounds. Amastigotes were treated with dilutions of compounds in 96-well microtitre plates. Dilutions of compounds ranging from 0.03 μM to 44 μM were prepared and added to amastigotes. Amastigotes were exposed to compounds for 48 hrs and were incubated at 37° C. […] After the incubation period, 20 μl Alamar Blue (12.5 mg resazurin dissolved in 100 ml distilled water) (Mikes and Steverding, 2000) were added to each well and plates were incubated for another 2 hrs. […] Decrease of fluorescence (inhibition) was expressed as percentage of the fluorescence of control cultures and was plotted against the concentrations of compounds. The IC50 values were calculated from the sigmoidal inhibition curves. Amphotericin B was used as a reference drug.

[5] = read-out: Antileishmanial Activity IC50 (μM) 2 hours, 2 hours exposure
[6] = read-out: Antileishmanial Activity IC50 (μM) 4 hours, 4 hours exposure
[7] = 6 hours exposure, read-out: Antileishmanial Activity IC50 (μM) 6 hours
[8] = 24 hours exposure, read-out: Antileishmanial Activity IC50 (μM) 24 hours

SMILES | IC50 ([1]; Leishmania donovani) [µM] | SI Values Promastigotes [1] | IC50 [2, 5] [µM] | IC50 [2, 6] [µM] | IC50 [2, 7] [µM] | IC50 [2, 8] [µM] | melting point [°C] | IC50 [3] [µM] | IC50 [4] [µM] | SI Values Amastigotes [4] | IC50 [1] [µM]
O=C1C(Cl)=C(N(C(=O)c2ccc(Cl)cc2)C(=O)c2ccc(Cl)cc2)C(=O)c2ccccc21 [IMDNQ1, 4-Chloro-N-(4-chlorobenzoyl)-N-(3-chloro-1,4-dioxo-1,4-dihydronaphthalen-2-yl)-benzamide] | 1.84 ± 0.9 | 2.23±1.09 and 2.23 | 5.53 ± 0.3 | 1100 ± 50.3 | 19.2 ± 18.4 | 5.28 ± 1.8 | 212 to 213 | 4.1 ± 3.5 | 11.8 ± 9.7 | 0.35±0.42 and 0.35 | –
O=C1C(Cl)=C(N(C(=O)c2ccc(F)cc2)C(=O)c2ccc(F)cc2)C(=O)c2ccccc21 [IMDNQ3, N-(3-Chloro-1,4-dioxo-1,4-dihydronaphthalen-2-yl)-4-fluoro-N-(4-fluorobenzoyl)-benzamide] | 10.8 | 2.30±1.05 and 2.30 | 11 ± 12.9 | 41.35 ± 0.21 | 2.32 ± 1.9 | 3.23 ± 5.3 | 284 to 286 | 24.8 | 4.1 | 6.06±1.77 and 6.06 | –
O=C1C(Br)=C(N(C(=O)c2ccccc2Cl)C(=O)c2ccccc2Cl)C(=O)c2ccccc21 [IMDNQ5, N-(3-Bromo-1,4-dioxo-1,4-dihydronaphthalen-2-yl)-2-chloro-N-(2-chlorobenzoyl)-benzamide] | 31.3 | 0.15 and 0.15±0.3 | 19 ± 1.5 | 0.57 | 1.66 ± 0.5 | 5.85 ± 2.2 | 232 to 234 | 4.7 | 4.67 | 1.01±0.21 and 1.01 | –
COc1ccc(C(=O)N(C(=O)c2ccc(OC)cc2)C2=C(Cl)C(=O)c3ccccc3C2=O)cc1 [IMDNQ9, 2-bis-(4-methoxybenzoyl)amino-3-chloro-1,4-naphthoquinone] | 5.64 ± 0.9 | 0.60±0.08 and 0.60 | 77.3 ± 119 | 23.3 ± 9.2 | 123 ± 35.1 | 7.23 ± 0.7 | 283 to 287 | 3.41 ± 1.1 | 4.67 ± 0.8 | 0.73±0.13 and 0.73 | –
COc1cc(C(=O)N(C(=O)c2cc(OC)c(OC)c(OC)c2)C2=C(Cl)C(=O)c3ccccc3C2=O)cc(OC)c1OC [IMDNQ11, 2-bis-(3,4,5-trimethoxybenzoyl)amino-3-chloro-1,4-naphthoquinone] | 22.9 ± 0.9 | 0.28±0.01 and 0.28 | 198 ± 16.8 | 22.7 ± 14.2 | 4.06 ± 1.4 | 8.82 ± 2 | 171 to 172 | 6.41 ± 2.9 | 27.3 | – | 11.85 ± 0.001
